Experimental findings from patent US10214542B2, “Modified macrocyclic compounds” (BAYER PHARMA AKTIENGESELLSCHAFT, priority 2015, dated 2019) are described below.

Test [1] has as its system B16F10 cells. Briefly: Proliferation assay, crystal violet (Method 3). Type of test: cell-based. Particulars: Mus musculus, B16-F10, 96 h; B16F10, 4 days; read-out: Inhibition of B16F10 cell proliferation IC50. How it is done: (§1) Cultivated tumour cells (HeLa, human cervical tumour cells, ATCC CCL-2; NCI-H460, human non-small cell lung carcinoma cells, ATCC HTB-177; DU 145, hormone-independent human prostate carcinoma cells, ATCC HTB-81; HeLa-MaTu-ADR, multidrug-resistant human cervical carcinoma cells, EPO-GmbH Berlin; Caco-2, human colorectal carcinoma cells, ATCC HTB-37; B16F10, mouse melanoma cells, ATCC CRL-6475) were plated at a density of 5,000 cells/well (DU145, HeLa-MaTu-ADR), 3,000 cells/well (NCI-H460, HeLa), 1,500 cells/well (Caco-2), or 1,000 cells/well (B16F10) in a 96-well multititer plate in 200 μL of their respective growth medium supplemented 10% fetal calf serum. After 24 hours, the cells of one plate (zero-point plate) were stained with crystal violet (see below), while the medium of the other plates was supplemented with the test substances in various concentrations (0 μM, as well as in the range of 0.0001-10 μM; the final concentration of the solvent dimethyl sulfoxide was adjusted to 0.1%) using a Hewlett-Packard HP D300 Digital Dispenser. The cells were incubated for 4 days in the presence of test substances. Cell proliferation was determined by staining the cells with crystal violet: the cells were fixed by adding 20 μl/measuring point of an 11% glutaric aldehyde solution for 15 minutes at room temperature. After three washing cycles of the fixed cells with water, the plates were dried at room temperature. The cells were stained by adding 100 μl/measuring point of a 0.1% crystal violet solution (pH 3.0). After three washing cycles of the stained cells with water, the plates were dried at room temperature. The dye was dissolved by adding 100 μl/measuring point of a 10% acetic acid solution. The extinction was determined by photometry at a wavelength of 595 nm. The change of cell number, in percent, was calculated by normalization of the measured values to the extinction values of the zero-point plate (=0%) and the extinction of the untreated (0 μm) cells (=100%). The IC50 values (inhibitory concentration at 50% of maximal effect) were determined by means of a 4 parameter fit.

The subject of test [2] is DU145 cells. Briefly: Proliferation assay, crystal violet (Method 3). The settings on record: Homo sapiens, DU-145, 96 h; DU145, 4 days; read-out: Inhibition of DU145 cell proliferation IC50. Type of test: cell-based. Here is the method:
as §1

Test [3] deals with Caco-2 cells. The experiment in a line: Proliferation assay, crystal violet (Method 3). Type of test: cell-based. The settings on record: Homo sapiens, 96 h; Caco-2, 4 days; read-out: Inhibition of Caco-2 cell proliferation IC50. How it is done:
as §1

In test [4] the test system is HeLa-MaTu-ADR cells. The experiment in a line: Proliferation assay, crystal violet (Method 3). Format: cell-based. Particulars: Homo sapiens, 96 h, 4 days, read-out: Inhibition of HeLa-MaTu-ADR cell proliferation IC50. Here is the method: as §1
In test [5] the test system is NCI-H460 cells. Briefly: Proliferation assay, crystal violet (Method 3). Format: cell-based. Particulars: Homo sapiens, 96 h; NCI-H460, 4 days; read-out: Inhibition of NCI-H460 cell proliferation IC50. How it is done:
as §1

Test [6] has as its system A2780 cells. Briefly: Proliferation assay, Cell Titre-Glo viability (Method 3). Format: cell-based, human. The settings on record: A2780, 72-hour exposure, read-out: Inhibition of A2780 cell proliferation IC50. Here is the method:
(§2) A2780 human ovarian carcinoma cells (ECACC #93112519) and non-adherent MOLM-13 human acute myeloid leukemia cells (DSMZ ACC 554) were seeded at a density of 3,000 cell/well (A2780) or 5,000 cells/well (MOLM-13) in a 96-well multititer plate in 150 μL of growth medium supplemented 10% fetal calf serum. After 24 hours, cell viability of one plate (zero-point plate) was determined with the Cell Titre-Glo Luminescent Cell Viability Assay (Promega), while the medium of the other plates was supplemented with the test substances in various concentrations (0 μM, as well as in the range of 0.0001-10 μM; the final concentration of the solvent dimethyl sulfoxide was adjusted to 0.1%) using a Hewlett-Packard HP D300 Digital Dispenser. Cell viability was assessed after 72-hour exposure with the Cell
(§3) Titre-Glo Luminescent Cell Viability Assay (Promega). IC50 values (inhibitory concentration at 50% of maximal effect) were determined by means of a 4 parameter fit on measurement data which were normalized to vehicle (DMSO) treated cells (=100%) and measurement readings taken immediately before compound exposure (=0%).

The test system of test [7] is MOLM-13 cells. The description is as above. Type of test: cell-based. Particulars: Homo sapiens; MOLM-13, 72-hour exposure; read-out: Inhibition of MOLM-13 cell proliferation IC50. How it is done:
as §2, §3

Test [8] deals with HeLa cells. The experiment in a line: Proliferation assay, crystal violet (Method 3). Type of test: cell-based, human. The settings on record: 4 days, read-out: Inhibition of HeLa cell proliferation IC50. How it is done: as §1

Where two headings read alike, the source gives them in different places. Where only a bound is given, the exact number is not on record here.

On to `CS(=N)(=O)Cc1cc2nc(c1)Nc1cc(c(F)cn1)-c1ccc(F)cc1OCCCN2` (racemic) [Example 8, (rac)-15,19-difluoro-8-[(S-methylsulfonimidoyl)methyl]-2,3,4,5-tetrahydro-11H-10,6-(azeno)-16,12-(metheno)-1,5,11,13-benzoxatriazacyclooctadecine], for which the IC50 in test [1] turned out to be 11 nM; in test [2] it was 5.6 nM; in test [3], 7.6 nM; in test [4], 5 nM; in test [5] it was 39 nM; in test [6] (Homo sapiens, A2780, 72 h), 1.4 nM. For the same compound, the IC50 in test [7] was 2.2 nM; in test [8] (Homo sapiens, 96 h) it was 3.3 nM.

In the case of `CC(C)(C)OC(=O)N=S(C)(=O)Cc1cc2nc(c1)Nc1cc(c(F)cn1)-c1ccc(F)cc1OCCCN2` (racemic) [Example 7, (rac)-tert-butyl[{[15,19-difluoro-2,3,4,5-tetrahydro-11H-10,6-(azeno)-16,12-(metheno)-1,5,11,13-benzoxatriazacyclooctadecin-8-yl]methyl}(methyl)oxido-λ^6-sulfanylidene]carbamate], the IC50 in test [1] worked out at 44 nM; in test [2] it was 30 nM; in test [3], 33 nM; in test [4] it was 53 nM; in test [5] it was 37 nM; in test [6] (Homo sapiens, A2780, 72 h), 7 nM. For the same compound, the IC50 in test [7] was 6.8 nM; in test [8] (Homo sapiens, 96 h), 32 nM.

`CS(=N)(=O)Cc1cc2nc(c1)Nc1cc(c(F)cn1)-c1ccc(F)cc1OCCCCCN2` (racemic) [Example 10, (rac)-17,21-difluoro-10-[(S-methylsulfonimidoyl)methyl]-2,3,4,5,6,7-hexahydro-13H-12,8-(azeno)-14,18-(metheno)-1,7,13,15-benzoxatriazacycloicosine]: the IC50 came to 26 nM in test [1]; 11 nM in test [2]; 13 nM in test [3]; 19 nM in test [4]; 18 nM in test [5]; 5.2 nM in test [6] (Homo sapiens, A2780, 72 h). Further, the IC50 is 4.4 nM in test [7] and 14 nM in test [8] (Homo sapiens, 96 h).

For `CS(=N)(=O)Cc1cc2nc(c1)OCCCCCc1cc(F)ccc1-c1cc(ncc1F)N2` (racemic) [Example 20, (rac)-2,19-difluoro-9-[(S-methylsulfonimidoyl)methyl]-14,15,16,17-tetrahydro-6H,13H-7,11-(azeno)-5,1-(metheno)-12,4,6-benzoxadiazacyclononadecine], the IC50 in test [1] worked out at 867 nM; in test [2], 347 nM; in test [3], 350 nM; in test [4] it was 360 nM; in test [5] it was 579 nM; in test [6] it was 161 nM. The IC50 was more than 100 nM in test [6] (Homo sapiens, A2780, 72 h); 79 nM in test [7]; 408 nM in test [8] (Homo sapiens, 96 h).

`CS(=N)(=O)Cc1cc2cc(c1)OCCCCSc1cc(F)ccc1-c1nc(ncc1F)N2` (racemic) [Example 22, (rac)-16,20-difluoro-9-[(S-methylsulfonimidoyl)methyl]-2,3,4,5-tetrahydro-12H-17,13-(azeno)-11,7-(metheno)-6,1,12,14-benzoxathiadiazacyclononadecine]: the IC50 came to 110 nM in test [1]; 36 nM in test [2]; 74 nM in test [3]; 105 nM in test [4]; 115 nM in test [5]; 45 nM in test [6] (Homo sapiens, A2780, 72 h). The IC50 in test [7] stood at 23 nM; in test [8] (Homo sapiens, 96 h) it was 102 nM.

Take `CN1CCCCNc2cc(F)ccc2-c2nc(ncc2F)Nc2cc(CS(C)(=N)=O)cc1c2.O=CO` (racemic) [Example 17, (rac)-16,20-difluoro-6-methyl-9-[(S-methylsulfonimidoyl)methyl]-1,2,3,4,5,6-hexahydro-12H-17,13-(azeno)-11,7-(metheno)-1,6,12,14-benzotetraazacyclononadecine; salt with formic acid]: the IC50 stood at 38 nM in test [1]; 30 nM in test [2]; 24 nM in test [3]; 30 nM in test [4]; 35 nM in test [5]; 6.5 nM in test [6] (Homo sapiens, A2780, 72 h). For the same compound, the IC50 in test [7] amounted to 13 nM; in test [8] (Homo sapiens, 96 h), 31 nM.

On to `CS(=O)(Cc1cc2nc(c1)Nc1cc(c(F)cn1)-c1ccc(F)cc1OCCCCN2)=NC(=O)OCc1ccccc1` (racemic) [Example 2, (rac)-Benzyl[{[16,20-difluoro-3,4,5,6-tetrahydro-2H,12H-11,7-(azeno)-13,17-(metheno)-1,6,12,14-benzoxatriazacyclononadecin-9-yl]methyl}(methyl)oxido-λ^6-sulfanylidene]carbamate], for which the IC50 in test [1] was found to be 77 nM; in test [2], 93 nM; in test [3], 98 nM; in test [4], 119 nM; in test [5], 80 nM; in test [6] (Homo sapiens, A2780, 72 h) it was 38 nM. In addition, the IC50 in test [7] was 3 nM; in test [8], more than 100 nM; in test [8] (Homo sapiens, 96 h) it was 77 nM.

In the case of `CSCc1cc2nc(c1F)N(C)CCCCOc1cc(F)ccc1-c1cc(ncc1F)N2` [Example 12, 8,16,20-trifluoro-6-methyl-9-[(methylsulfanyl)methyl]-3,4,5,6-tetrahydro-2H,12H-11,7-(azeno)-13,17-(metheno)-1,6,12,14-benzoxatriazacyclononadecine], the IC50 in test [1] is 991 nM; in test [2], 852 nM; in test [3], 441 nM; in test [4], 872 nM; in test [5] it was 588 nM; in test [6] (Homo sapiens, A2780, 72 h), more than 100 nM. Also, the IC50 is 100 nM in test [7] and 851 nM in test [8] (Homo sapiens, 96 h).

As for `CN1CCCCOc2cc(F)ccc2-c2cc(ncc2F)Nc2cc(CS(C)(=N)=O)cc1n2` (racemic) [Example 11, (rac)-16,20-difluoro-6-methyl-9-[(S-methylsulfonimidoyl)methyl]-3,4,5,6-tetrahydro-2H-7,11-(azeno)-17,13-(metheno)-1,6,12,14-benzoxatriazacyclononadecine], the IC50 in test [1] came out at 12 nM; in test [2], 12 nM; in test [3], 8.9 nM; in test [4] it was 12 nM; in test [5], 12 nM; in test [6] (Homo sapiens, A2780, 72 h) it was 4.6 nM. Moreover, the IC50 in test [7] was 8.2 nM; in test [8] (Homo sapiens, 96 h), 10 nM.

As to `CC(C)(C)OC(=O)N=S(C)(=O)Cc1cc2nc(c1)Nc1cc(c(F)cn1)-c1ccc(F)cc1OCCCCCN2` (racemic) [Example 9, (rac)-tert-butyl[{[17,21-difluoro-2,3,4,5,6,7-hexahydro-13H-12,8-(azeno)-14,18-(metheno)-1,7,13,15-benzoxatriazacycloicosin-10-yl]methyl}(methyl)oxido-λ^6-sulfanylidene]carbamate], the IC50 is 85 nM in test [1]; 36 nM in test [2]; 48 nM in test [3]; 75 nM in test [4]; 39 nM in test [5]; 27 nM in test [6] (Homo sapiens, A2780, 72 h). Also, the IC50 was found to be 19 nM in test [7] and 33 nM in test [8] (Homo sapiens, 96 h).
